Measured values as given in patent publication US11767310B2, “Nicotinamide RIPK1 inhibitors” (AbbVie Inc., priority 2021, dated 2023).
Where two headings read alike, the source gives them in different places.

Tests used:
Assay in all cases: Kinase binding screen
Settings in all cases: read-out: Percent Control at 100 nM Compound Concentration
SRMS = SRMS (Homo sapiens (Human), UniProt Q9H3Y6)
HIPK4 = HIPK4 (Homo sapiens (Human), UniProt Q8NE63)
PDPK1 = PDPK1 (Homo sapiens (Human), UniProt O15530)
MERTK = MERTK (Homo sapiens (Human), UniProt Q12866)
CDK8 = CDK8 (Homo sapiens (Human), UniProt P49336)
TSSK1B = TSSK1B (Homo sapiens (Human), UniProt Q9BXA7)
NEK1 = NEK1 (Homo sapiens (Human), UniProt Q96PY6)
Chain of NEK1 (Q96PY6 whole entry): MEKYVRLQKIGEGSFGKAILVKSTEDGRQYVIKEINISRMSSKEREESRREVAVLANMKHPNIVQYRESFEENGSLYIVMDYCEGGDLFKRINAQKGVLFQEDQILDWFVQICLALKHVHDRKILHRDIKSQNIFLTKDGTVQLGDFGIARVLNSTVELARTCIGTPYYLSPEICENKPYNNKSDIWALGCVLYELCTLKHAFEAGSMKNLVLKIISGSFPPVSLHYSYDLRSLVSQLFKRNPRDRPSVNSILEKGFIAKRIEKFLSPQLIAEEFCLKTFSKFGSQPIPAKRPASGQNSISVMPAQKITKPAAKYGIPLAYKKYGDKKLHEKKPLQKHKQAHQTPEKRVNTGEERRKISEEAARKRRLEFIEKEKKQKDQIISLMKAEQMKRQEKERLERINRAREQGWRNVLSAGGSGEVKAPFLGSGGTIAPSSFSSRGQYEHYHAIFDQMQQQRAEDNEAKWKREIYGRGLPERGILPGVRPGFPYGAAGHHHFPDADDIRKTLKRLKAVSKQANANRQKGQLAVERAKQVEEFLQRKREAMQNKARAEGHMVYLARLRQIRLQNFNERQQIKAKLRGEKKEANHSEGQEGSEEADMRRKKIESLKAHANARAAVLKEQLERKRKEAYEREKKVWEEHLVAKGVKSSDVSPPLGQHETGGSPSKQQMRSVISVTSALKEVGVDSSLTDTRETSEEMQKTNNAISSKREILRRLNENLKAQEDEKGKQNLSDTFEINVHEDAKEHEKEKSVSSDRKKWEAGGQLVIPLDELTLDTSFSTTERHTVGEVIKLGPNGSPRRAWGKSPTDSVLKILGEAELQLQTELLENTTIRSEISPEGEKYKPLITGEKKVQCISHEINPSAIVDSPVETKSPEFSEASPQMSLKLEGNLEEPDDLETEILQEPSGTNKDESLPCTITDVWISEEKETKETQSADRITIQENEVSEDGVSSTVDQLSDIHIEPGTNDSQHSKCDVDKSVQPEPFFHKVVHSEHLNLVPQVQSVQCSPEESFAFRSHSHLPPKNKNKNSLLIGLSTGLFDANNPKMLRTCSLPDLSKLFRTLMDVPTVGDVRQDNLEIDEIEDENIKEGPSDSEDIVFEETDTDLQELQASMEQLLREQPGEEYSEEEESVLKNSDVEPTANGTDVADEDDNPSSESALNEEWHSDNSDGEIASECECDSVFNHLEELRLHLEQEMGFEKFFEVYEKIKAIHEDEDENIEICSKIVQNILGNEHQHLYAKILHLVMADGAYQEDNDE

[1] = biological target: RSK2(Kin.Dom.1-N-terminal) (Homo sapiens (Human), UniProt P51812)
EPHB3 = EPHB3 (Homo sapiens (Human), UniProt P54753)
STK39 = STK39 (Homo sapiens (Human), UniProt Q9UEW8)
[2] = biological target: RPS6KA4(Kin.Dom.1-N-terminal) (Homo sapiens (Human), UniProt O75676)
Chain of RPS6KA4(Kin.Dom.1-N-terminal) (O75676 33-301): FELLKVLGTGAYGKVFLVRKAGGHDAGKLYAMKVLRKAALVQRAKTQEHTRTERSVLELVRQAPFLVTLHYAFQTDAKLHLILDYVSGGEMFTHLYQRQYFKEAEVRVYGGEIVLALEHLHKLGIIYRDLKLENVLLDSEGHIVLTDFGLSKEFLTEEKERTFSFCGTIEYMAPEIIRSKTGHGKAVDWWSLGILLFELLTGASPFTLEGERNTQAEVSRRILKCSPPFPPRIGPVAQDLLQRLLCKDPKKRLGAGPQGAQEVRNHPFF

RIOK1 = RIOK1 (Homo sapiens (Human), UniProt Q9BRS2)
NDR1 = NDR1 (Homo sapiens (Human), UniProt Q15208)
HIPK1 = HIPK1 (Homo sapiens (Human), UniProt Q86Z02)
CSNK1G3 = CSNK1G3 (Homo sapiens (Human), UniProt Q9Y6M4)
ULK2 = ULK2 (Homo sapiens (Human), UniProt Q8IYT8)
BTK = BTK (Homo sapiens (Human), UniProt Q06187)
MET = MET (Homo sapiens (Human), UniProt P08581)
Chain of MET (P08581 25-1390): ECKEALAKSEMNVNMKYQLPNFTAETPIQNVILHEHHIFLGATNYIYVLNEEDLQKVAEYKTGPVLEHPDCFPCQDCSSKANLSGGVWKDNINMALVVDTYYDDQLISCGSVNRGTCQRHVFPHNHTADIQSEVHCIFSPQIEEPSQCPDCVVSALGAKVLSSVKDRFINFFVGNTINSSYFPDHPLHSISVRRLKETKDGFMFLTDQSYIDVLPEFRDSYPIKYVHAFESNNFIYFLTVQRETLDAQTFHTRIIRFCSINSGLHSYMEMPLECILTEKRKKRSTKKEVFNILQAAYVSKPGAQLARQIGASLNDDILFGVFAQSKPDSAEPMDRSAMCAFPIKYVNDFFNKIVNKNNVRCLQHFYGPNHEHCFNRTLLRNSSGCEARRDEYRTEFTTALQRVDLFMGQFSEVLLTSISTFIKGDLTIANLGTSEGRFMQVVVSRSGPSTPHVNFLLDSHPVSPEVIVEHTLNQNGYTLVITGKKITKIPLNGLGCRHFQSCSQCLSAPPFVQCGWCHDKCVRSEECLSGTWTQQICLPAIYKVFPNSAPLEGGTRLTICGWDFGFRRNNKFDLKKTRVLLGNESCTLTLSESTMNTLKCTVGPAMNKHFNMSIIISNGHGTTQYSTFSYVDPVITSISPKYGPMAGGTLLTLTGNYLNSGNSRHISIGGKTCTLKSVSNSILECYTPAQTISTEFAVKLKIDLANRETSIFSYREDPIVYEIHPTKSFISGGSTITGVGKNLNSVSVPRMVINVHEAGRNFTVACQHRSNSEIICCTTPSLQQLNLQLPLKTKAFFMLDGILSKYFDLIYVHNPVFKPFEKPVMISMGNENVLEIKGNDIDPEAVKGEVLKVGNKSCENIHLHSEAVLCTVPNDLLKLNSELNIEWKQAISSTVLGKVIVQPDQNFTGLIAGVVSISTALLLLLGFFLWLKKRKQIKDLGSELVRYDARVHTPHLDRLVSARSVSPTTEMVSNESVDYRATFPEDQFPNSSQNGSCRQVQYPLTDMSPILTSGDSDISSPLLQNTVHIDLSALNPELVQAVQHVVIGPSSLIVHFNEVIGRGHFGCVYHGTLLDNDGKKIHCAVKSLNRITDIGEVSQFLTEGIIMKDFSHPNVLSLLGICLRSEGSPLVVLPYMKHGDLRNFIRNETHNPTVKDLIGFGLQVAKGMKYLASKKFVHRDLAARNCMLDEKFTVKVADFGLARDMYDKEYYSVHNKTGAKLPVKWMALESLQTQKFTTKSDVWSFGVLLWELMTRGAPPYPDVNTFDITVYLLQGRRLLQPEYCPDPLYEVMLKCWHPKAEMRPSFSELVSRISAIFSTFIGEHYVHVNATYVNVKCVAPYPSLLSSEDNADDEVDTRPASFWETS

TIE1 = TIE1 (Homo sapiens (Human), UniProt P35590)
ALK(C1156Y) = ALK(C1156Y) (Homo sapiens (Human), UniProt Q9UM73, C1156Y)
DCAMKL1 = DCAMKL1 (Homo sapiens (Human), UniProt O15075)
CDKL5 = CDKL5 (Homo sapiens (Human), UniProt O76039)
Chain of CDKL5 (O76039 whole entry): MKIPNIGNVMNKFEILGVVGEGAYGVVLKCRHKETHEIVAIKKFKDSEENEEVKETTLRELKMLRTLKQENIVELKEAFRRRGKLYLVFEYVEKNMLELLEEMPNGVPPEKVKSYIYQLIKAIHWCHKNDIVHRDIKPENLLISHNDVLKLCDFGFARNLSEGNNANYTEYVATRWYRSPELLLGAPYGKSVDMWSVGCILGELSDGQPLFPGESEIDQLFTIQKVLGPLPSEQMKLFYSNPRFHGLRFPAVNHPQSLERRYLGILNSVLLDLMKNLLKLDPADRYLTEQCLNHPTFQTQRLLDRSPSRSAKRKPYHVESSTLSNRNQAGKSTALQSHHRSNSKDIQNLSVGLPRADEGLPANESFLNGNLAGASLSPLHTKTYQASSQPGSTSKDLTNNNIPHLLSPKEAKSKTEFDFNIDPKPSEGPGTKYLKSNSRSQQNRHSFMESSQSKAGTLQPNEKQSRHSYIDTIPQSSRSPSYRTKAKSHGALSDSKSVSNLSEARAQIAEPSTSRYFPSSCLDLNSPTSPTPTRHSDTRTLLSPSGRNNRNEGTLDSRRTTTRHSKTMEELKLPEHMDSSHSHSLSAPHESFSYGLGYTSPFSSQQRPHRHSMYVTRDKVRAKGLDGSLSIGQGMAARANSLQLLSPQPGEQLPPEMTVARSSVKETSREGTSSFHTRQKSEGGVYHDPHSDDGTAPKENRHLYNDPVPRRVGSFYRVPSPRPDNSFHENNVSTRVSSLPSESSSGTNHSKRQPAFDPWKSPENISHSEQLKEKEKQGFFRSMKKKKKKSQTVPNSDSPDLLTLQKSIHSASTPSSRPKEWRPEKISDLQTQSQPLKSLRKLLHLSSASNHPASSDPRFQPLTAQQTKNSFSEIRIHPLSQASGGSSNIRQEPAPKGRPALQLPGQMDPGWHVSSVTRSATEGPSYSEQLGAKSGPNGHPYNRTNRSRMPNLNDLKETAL

NEK3 = NEK3 (Homo sapiens (Human), UniProt P51956)
[3] = biological target: RSK1(Kin.Dom.2-C-terminal) (Homo sapiens (Human), UniProt Q15418)
NEK6 = NEK6 (Homo sapiens (Human), UniProt Q9HC98)
TAOK1 = TAOK1 (Homo sapiens (Human), UniProt Q7L7X3)
Chain of TAOK1 (Q7L7X3 whole entry): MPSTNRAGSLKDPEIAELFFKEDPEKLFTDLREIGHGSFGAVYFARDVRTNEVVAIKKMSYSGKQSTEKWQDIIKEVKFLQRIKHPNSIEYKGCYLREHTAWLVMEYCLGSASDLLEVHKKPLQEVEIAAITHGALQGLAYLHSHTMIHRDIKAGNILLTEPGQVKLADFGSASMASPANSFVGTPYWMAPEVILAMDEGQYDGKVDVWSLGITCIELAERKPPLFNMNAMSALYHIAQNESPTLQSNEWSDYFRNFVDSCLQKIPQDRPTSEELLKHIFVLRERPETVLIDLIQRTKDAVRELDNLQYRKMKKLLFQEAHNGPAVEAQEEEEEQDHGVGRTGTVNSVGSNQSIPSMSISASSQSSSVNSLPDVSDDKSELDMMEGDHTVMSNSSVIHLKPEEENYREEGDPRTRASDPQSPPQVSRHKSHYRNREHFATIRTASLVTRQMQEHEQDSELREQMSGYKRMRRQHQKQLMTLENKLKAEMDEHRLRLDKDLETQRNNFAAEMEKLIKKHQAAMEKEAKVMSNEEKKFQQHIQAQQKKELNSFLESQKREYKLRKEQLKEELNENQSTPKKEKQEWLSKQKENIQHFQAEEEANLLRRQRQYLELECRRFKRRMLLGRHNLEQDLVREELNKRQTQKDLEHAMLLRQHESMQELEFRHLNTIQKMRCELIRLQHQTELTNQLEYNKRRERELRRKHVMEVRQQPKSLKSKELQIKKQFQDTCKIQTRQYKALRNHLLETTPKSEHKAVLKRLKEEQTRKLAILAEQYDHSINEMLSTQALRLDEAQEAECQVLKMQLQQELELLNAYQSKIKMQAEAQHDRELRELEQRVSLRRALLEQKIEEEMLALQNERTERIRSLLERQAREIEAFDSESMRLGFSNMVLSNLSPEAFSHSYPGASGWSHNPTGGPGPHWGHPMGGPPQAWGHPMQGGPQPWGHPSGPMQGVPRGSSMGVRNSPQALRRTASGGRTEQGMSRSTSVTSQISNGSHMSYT

IRAK3 = IRAK3 (Homo sapiens (Human), UniProt Q9Y616)
EPHA6 = EPHA6 (Homo sapiens (Human), UniProt Q9UF33)
TYRO3 = TYRO3 (Homo sapiens (Human), UniProt Q06418)

What does the source list for CN(C[C@H](Cc1ccccc1)OP(=O)(O)O)C(=O)c1cncc(C#Cc2cnn(C(F)F)c2)c1 [Example 19, (S)-1-(5-((1-(difluoromethyl)-1H-pyrazol-4-yl)ethynyl)-N-methylnicotinamido)-3-phenylpropan-2-yl dihydrogen phosphate]?
remaining activity at 0.1 µM (SRMS): 96%; remaining activity at 0.1 µM (HIPK4): 100%; remaining activity at 0.1 µM (PDPK1): 100%; remaining activity at 0.1 µM (MERTK): 100%; remaining activity at 0.1 µM (CDK8): 98%; remaining activity at 0.1 µM (TSSK1B): 76%; remaining activity at 0.1 µM (NEK1): 100%; remaining activity at 0.1 µM [1]: 94%; remaining activity at 0.1 µM (EPHB3): 100%; remaining activity at 0.1 µM (STK39): 100%; remaining activity at 0.1 µM [2]: 100%; remaining activity at 0.1 µM (RIOK1): 100%; remaining activity at 0.1 µM (NDR1): 100%; remaining activity at 0.1 µM (HIPK1): 82%; remaining activity at 0.1 µM (CSNK1G3): 100%; remaining activity at 0.1 µM (ULK2): 94%; remaining activity at 0.1 µM (BTK): 96%; remaining activity at 0.1 µM (MET): 100%; remaining activity at 0.1 µM (TIE1): 100%; remaining activity at 0.1 µM (ALK(C1156Y)): 100%; remaining activity at 0.1 µM (DCAMKL1): 100%; remaining activity at 0.1 µM (CDKL5): 86%; remaining activity at 0.1 µM (NEK3): 96%; remaining activity at 0.1 µM [3]: 100%; remaining activity at 0.1 µM (NEK6): 100%; remaining activity at 0.1 µM (TAOK1): 100%; remaining activity at 0.1 µM (IRAK3): 92%; remaining activity at 0.1 µM (EPHA6): 100%; remaining activity at 0.1 µM (TYRO3): 100%

What does the source list for CN(C[C@@H](O)Cc1ccccc1)C(=O)c1cncc(C#Cc2cnn(C(F)F)c2)c1 [Example 2, (S)-5-((1-(difluoromethyl)-1H-pyrazol-4-yl)ethynyl)-N-(2-hydroxy-3-phenylpropyl)-N-methylnicotinamide]?
remaining activity at 0.1 µM (SRMS; SRMS): 100%; remaining activity at 0.1 µM (HIPK4; HIPK4): 100%; remaining activity at 0.1 µM (PDPK1; PDPK1): 99%; remaining activity at 0.1 µM (MERTK; MERTK): 100%; remaining activity at 0.1 µM (CDK8; CDK8): 10%; remaining activity at 0.1 µM (TSSK1B; TSSK1B): 88%; remaining activity at 0.1 µM (NEK1; NEK1): 100%; remaining activity at 0.1 µM ([1]; RSK2(Kin.Dom.1-N-terminal)): 100%; remaining activity at 0.1 µM (EPHB3; EPHB3): 100%; remaining activity at 0.1 µM (STK39; STK39): 100%; remaining activity at 0.1 µM ([2]; RPS6KA4(Kin.Dom.1-N-terminal)): 97%; remaining activity at 0.1 µM (RIOK1; RIOK1): 100%; remaining activity at 0.1 µM (NDR1; NDR1): 100%; remaining activity at 0.1 µM (HIPK1; HIPK1): 72%; remaining activity at 0.1 µM (CSNK1G3; CSNK1G3): 99%; remaining activity at 0.1 µM (ULK2; ULK2): 100%; remaining activity at 0.1 µM (BTK; BTK): 100%; remaining activity at 0.1 µM (MET; MET): 100%; remaining activity at 0.1 µM (TIE1; TIE1): 100%; remaining activity at 0.1 µM (ALK(C1156Y); ALK(C1156Y)): 100%; remaining activity at 0.1 µM (DCAMKL1; DCAMKL1): 100%; remaining activity at 0.1 µM (CDKL5; CDKL5): 93%; remaining activity at 0.1 µM (NEK3; NEK3): 96%; remaining activity at 0.1 µM ([3]; RSK1(Kin.Dom.2-C-terminal)): 100%; remaining activity at 0.1 µM (NEK6; NEK6): 100%; remaining activity at 0.1 µM (TAOK1; TAOK1): 100%; remaining activity at 0.1 µM (IRAK3; IRAK3): 96%; remaining activity at 0.1 µM (EPHA6; EPHA6): 100%; remaining activity at 0.1 µM (TYRO3; TYRO3): 99%
